Test results from paper PMC9667936, “Functional mapping of the 14-3-3 hub protein as a guide to design 14-3-3 molecular glues” (Chemical Science, 2022).
Read-outs that look alike come from different tables or passages of the source. Where a SMILES comes first, the peptide text is derived from it. [ ]: non-standard residue; d: D form. ξ: configuration not given here. Phe(4-NO2) = N[C@@H](Cc1ccc([N+](=O)[O-])cc1)C(=O)O; ξAla(4-thiazolyl) = NC(Cc1cscn1)C(=O)O; pS = N[C@@H](COP(=O)(O)O)C(=O)O; β3hS = N[C@@H](CO)CC(=O)O; Nva = CCC[C@H](N)C(=O)O; ξβ3hS = NC(CO)CC(=O)O; βAla = NCCC(=O)O

Target: T1, 14-3-3γ (Homo sapiens, UniProt P61981)
T1 construct: made in house; host or cells: E. coli NiCo21 (DE3)
T1 sequence (P61981 1-247): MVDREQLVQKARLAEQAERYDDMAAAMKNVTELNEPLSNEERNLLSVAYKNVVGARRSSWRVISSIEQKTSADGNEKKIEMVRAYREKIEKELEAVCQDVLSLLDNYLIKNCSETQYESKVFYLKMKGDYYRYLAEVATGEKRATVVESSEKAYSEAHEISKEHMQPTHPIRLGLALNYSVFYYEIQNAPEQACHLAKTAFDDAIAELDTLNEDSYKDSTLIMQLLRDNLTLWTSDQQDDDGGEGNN
Assay: Isothermal titration calorimetry (ITC) of 14-3-3 binding to peptide
Settings: for ΔG / Kd / ΔH / -TΔS / ΔH (ITC) / -TΔS (ITC) / ΔG (ITC) / KD (ITC): 25 °C; for Kd: Table S6 (unit as in Table S5)
Description: 14-3-3γ protein expression (FP/ITC experiments)
A pPROEX HTb expression vector encoding the human 14-3-3 protein gamma (14-3-3γ) with an N-terminal his6-tag was transformed by heat shock into NiCo21 (DE3) competent cells. Single colonies were cultured in 50 mL LB medium (100 µg/mL ampicillin). After overnight incubation at 37 °C, cultures were transferred to 2 L TB media (100 µg/mL ampicillin, 1 mM MgCl2) and incubated at 37 °C until an OD600 nm of 0.8-1.2 was reached. Protein expression was then induced with 0.4 mM isopropyl-β-d-thiogalactoside (IPTG), and cultures were incubated overnight at 18 °C. Cells were harvested by centrifugation (8600 rpm, 20 minutes, 4 °C) and resuspended in lysis buffer (50 mM Hepes, pH 8.0, 300 mM NaCl, 12.5 mM imidazole, 5 mM MgCl2, 2 mM βME) containing cOmplete™ EDTA-free Protease Inhibitor Cocktail tablets (1 tablet/100 ml lysate) and benzonase (1 µl/100 ml). After lysis using a C3 Emulsiflex-C3 homogenizer (Avestin), the cell lysate was cleared by centrifugation (20000 rpm, 30 minutes, 4 °C) and purified using Ni2+-affinity chromatography (Ni-NTA superflow cartridges, Qiagen).
Typically two 5 mL columns (flow 5 mL/min) were used for a 2 L culture in which the lysate was loaded on the column washed with 10 CV wash buffer (50 mM Hepes, pH 8.0, 300 mM NaCl, 25 mM imidazole, 2 mM βME) and eluted in several fractions (2-4 CV) of elution buffer (50 mM Hepes, pH 8.0, 300 mM NaCl, 250 mM imidazole, 2 mM βME). Fractions containing the 14-3-3 protein were combined and dialyzed into 25 mM HEPES pH 8.0, 100 mM NaCl, 10 mM MgCl2, 500 µM TCEP. […]
The peptides 1 and 2a-d were synthesized on 50 µmol scale on a Rink amide MBHA resin (Novabiochem, 0.52 mmol/g loading) using an automated Intavis MultiPep RSi peptide synthesizer.
Deprotection was performed twice per cycle with 20% v/v piperidine in DMF for 8 minutes. Fmoc-protected amino acids were mixed in 5 equivalents of HBTU and 9 equivalents of DIPEA in DMF, and coupled to the resin. With the exception of phosphoserine, which was coupled once for 60 minutes, all amino acids were coupled to the resin twice for 30 minutes. Capping of unreacted amino acids was performed with a mixture of acetic anhydride/pyridine/DMF (1:1:3) for 5 minutes. βAla was incorporated as a spacer between the sequence and Lys(Alloc), to which a FITC fluorophore will be coupled for fluorescence anisotropy studies.
The peptides 1 and 2e-i were synthesized manually on a 50 µmol scale using Rink amide MBHA resin (Novabiochem, 0.52 mmol/g loading) via Fmoc based solid phase peptide synthesis. […]
(lex: 485 ± 20 nm; lem: 535 ± 25 nm; mirror: Dichroic 510; flashes: 20; integration time: 50 ms; settle time:
0 ms; gain: optimal; and Z-position: calculated from well). […]
Data was obtained and averaged based on two
To determine the cooperativity parameters from the 2D-titration of 14-3-3/ChREBP/2d (as described above) we have used the general framework for straightforward model construction of multi-component thermodynamic equilibrium systems as described by Geertjens et al. (2021).10 This general platform generates a model to describe multi-component equilibrium systems when given a system description.
In our case we gave the following system description: […]
α (with 95% confidence interval) and the error-landscape of the determine parameters.
Fluorescence anisotropy (FA) – Selectivity study: Peptides representing 14-3-3 binding partners (including ChREBP) were titrated in a 2-fold dilution series (starting at 100 µM) to 20 nM of fluorescein-labeled peptide 2d in presence and absence of, respectively, 2 µM 14-3-3γ in FA buffer (10 mM HEPES pH 7.4, 150 mM NaCl, 0.1% (v/v) Tween20, 0.1% (w/v) BSA). Dilution series were made in a polystyrene (non-binding) low-volume Corning Black Round Bottom 384-well plates (Corning 4514 or 4511).
Measurements were performed directly after plate preparation, using a Tecan Infinite F500 plate reader at room temperature (lex: 485 ± 20 nm; lem: 535 ± 25 nm; mirror: Dichroic 510; flashes: 20; integration […]

[1] = Table S5, ΔG minus ΔG of peptide 1, ITC, first unlabelled line (replicate 1)
[2] = Table S5, ΔG minus ΔG of peptide 1, ITC, second unlabelled line (replicate 2)
[3] = Table S5, ΔG of peptide minus ΔG of peptide 1, ITC, mean of n = 2
[4] = ITC, average of two runs, read-out: Kd
[5] = Table S6 (unit given in Fig. 4 legend), ITC, average of two runs
[6] = Table S6, ITC, average of two runs

Structure (SMILES): CCC[C@H](NC(=O)[C@H](N)CCCCN)C(=O)N[C@@H](Cc1ccc([N+](=O)[O-])cc1)C(=O)NC(Cc1cscn1)C(=O)N[C@@H](COP(=O)(O)O)C(=O)N[C@@H](Cc1ccc([N+](=O)[O-])cc1)C(=O)N[C@@H](CO)CC(=O)NCCC(=O)N[C@@H](Cc1ccc(O)cc1)C(=O)N[C@@H](CCCCN)C(N)=O (stereo partly drawn) [5a] (H-[dK][Nva][Phe(4-NO2)][ξAla(4-thiazolyl)][pS][Phe(4-NO2)][β3hS][βAla]YK-NH2; N-terminus and C-terminus assumed)
- ΔG (Table S5, ITC, mean of n = 2): -7.8 kcal/mol
- ΔG (Table S5, ITC, replicate 1): -7.9 kcal/mol
- ΔG (Table S5, ITC, replicate 2): -7.6 kcal/mol
- ΔΔG to 1 [1]: 2.1 kcal/mol
- ΔΔG to 1 [2]: 2.4 kcal/mol
- ΔΔG to 1 [3]: 2.2 kcal/mol
- Kd [4]: 2.06 µM
- Kd (ITC, run 1): 1,55E-06 M
- Kd (ITC, run 2): 2,57E-06 M
- ΔH [5]: -5,21 kcal mol^-1
- -TΔS [6]: -2,57 kcal mol^-1
- ΔG [6]: -7,78 kcal mol^-1
- -TΔS (Table S6, ITC, run 1): -1,834 kcal mol^-1
- ΔG (Table S6, ITC, run 1): -7,925 kcal mol^-1
- ΔH (Table S6, ITC, run 1): -6,091 kcal mol^-1
- -TΔS (Table S6, ITC, run 2): -3,299 kcal mol^-1
- ΔG (Table S6, ITC, run 2): -7,626 kcal mol^-1
- ΔH (Table S6, ITC, run 2): -4,328 kcal mol^-1

Structure (SMILES): CCC[C@H](NC(=O)[C@H](N)CCCCN)C(=O)N[C@@H](Cc1ccc([N+](=O)[O-])cc1)C(=O)NC(Cc1cscn1)C(=O)N[C@@H](COP(=O)(O)O)C(=O)N[C@@H](Cc1ccc([N+](=O)[O-])cc1)C(=O)N[C@@H](CO)CC(=O)NCCC(=O)N[C@@H](Cc1ccccc1)C(=O)N[C@@H](CCCCN)C(N)=O (stereo partly drawn) [5b] (H-[dK][Nva][Phe(4-NO2)][ξAla(4-thiazolyl)][pS][Phe(4-NO2)][β3hS][βAla]FK-NH2; N-terminus and C-terminus assumed)
- increase of enthalpy (ΔH) on removal of the nitro group, relative to peptide 1 (ITC, n = 2, Fig. 4c): ~6 kcal/mol
- ΔG (Table S5, ITC, mean of n = 2): -7.9 kcal/mol
- ΔG (Table S5, ITC, replicate 1): -7.9 kcal/mol
- ΔG (Table S5, ITC, replicate 2): -7.8 kcal/mol
- ΔΔG to 1 [1]: 2.1 kcal/mol
- ΔΔG to 1 [2]: 2.2 kcal/mol
- ΔΔG to 1 [3]: 2.1 kcal/mol
- Kd [4]: 1.45 µM
- Kd (ITC, run 1): 1,06E-06 M
- Kd (ITC, run 2): 1,85E-06 M
- ΔH [5]: -4,72 kcal mol^-1
- -TΔS [6]: -3,16 kcal mol^-1
- ΔG [6]: -7,88 kcal mol^-1
- -TΔS (Table S6, ITC, run 1): -3,227 kcal mol^-1
- ΔG (Table S6, ITC, run 1): -7,943 kcal mol^-1
- ΔH (Table S6, ITC, run 1): -4,716 kcal mol^-1
- -TΔS (Table S6, ITC, run 2): -3,096 kcal mol^-1
- ΔG (Table S6, ITC, run 2): -7,821 kcal mol^-1
- ΔH (Table S6, ITC, run 2): -4,725 kcal mol^-1

Structure (SMILES): CCC[C@H](NC(=O)[C@H](N)CCCCN)C(=O)N[C@@H](Cc1ccc([N+](=O)[O-])cc1)C(=O)NC(Cc1cscn1)C(=O)N[C@@H](COP(=O)(O)O)C(=O)N[C@@H](Cc1ccc([N+](=O)[O-])cc1)C(=O)N[C@@H](CO)CC(=O)NCCC(=O)N[C@@H](C)C(=O)N[C@@H](CCCCN)C(N)=O (stereo partly drawn) [5c] (H-[dK][Nva][Phe(4-NO2)][ξAla(4-thiazolyl)][pS][Phe(4-NO2)][β3hS][βAla]AK-NH2; N-terminus and C-terminus assumed)
- ΔG (Table S5, ITC, mean of n = 2): -7.4 kcal/mol
- ΔG (Table S5, ITC, replicate 1): -7.4 kcal/mol
- ΔG (Table S5, ITC, replicate 2): -7.3 kcal/mol
- ΔΔG to 1 [1]: 2.6 kcal/mol
- ΔΔG to 1 [2]: 2.7 kcal/mol
- ΔΔG to 1 [3]: 2.6 kcal/mol
- Kd [4]: 3.91 µM
- Kd (ITC, run 1): 3,48E-06 M
- Kd (ITC, run 2): 4,33E-06 M
- ΔH [5]: -2,89 kcal mol^-1
- -TΔS [6]: -4,49 kcal mol^-1
- ΔG [6]: -7,38 kcal mol^-1
- -TΔS (Table S6, ITC, run 1): -5,204 kcal mol^-1
- ΔG (Table S6, ITC, run 1): -7,446 kcal mol^-1
- ΔH (Table S6, ITC, run 1): -2,242 kcal mol^-1
- -TΔS (Table S6, ITC, run 2): -3,779 kcal mol^-1
- ΔG (Table S6, ITC, run 2): -7,317 kcal mol^-1
- ΔH (Table S6, ITC, run 2): -3,539 kcal mol^-1

Structure (SMILES): CCC[C@H](NC(=O)[C@H](N)CCCCN)C(=O)N[C@@H](Cc1ccc([N+](=O)[O-])cc1)C(=O)NC(Cc1cscn1)C(=O)N[C@@H](COP(=O)(O)O)C(=O)N[C@@H](Cc1ccc([N+](=O)[O-])cc1)C(=O)NC(CO)CC(=O)NCCC(=O)N[C@@H](Cc1ccc([N+](=O)[O-])cc1)C(=O)N[C@@H](CCCCN)C(N)=O (stereo partly drawn) [compound 1] (H-[dK][Nva][Phe(4-NO2)][ξAla(4-thiazolyl)][pS][Phe(4-NO2)][ξβ3hS][βAla][Phe(4-NO2)]K-NH2)
- free binding energy ΔG (ITC) (ITC): -10.0 kcal/mol
- ΔH (ITC) (Table S1 (unit given in Fig. 4 legend), ITC, mean of n = 2): -10.7 kcal/mol
- -TΔS (ITC) (Table S1, ITC, mean of n = 2): 0.7 kcal/mol
- ΔG (ITC) (Table S1, ITC, mean of n = 2): -10.0 kcal/mol
- -TΔS (ITC) (Table S1, ITC, replicate 1): 0.9 kcal/mol
- KD (ITC) (Table S1, ITC, replicate 1): 0.0447 µM
- ΔG (ITC) (Table S1, ITC, replicate 1): -10.0 kcal/mol
- ΔH (ITC) (Table S1, ITC, replicate 1): -11.0 kcal/mol
- -TΔS (ITC) (Table S1, ITC, replicate 2): 0.4 kcal/mol
- KD (ITC) (Table S1, ITC, replicate 2): 0.0453 µM
- ΔG (ITC) (Table S1, ITC, replicate 2): -10.0 kcal/mol
- ΔH (ITC) (Table S1, ITC, replicate 2): -10.5 kcal/mol
- ΔG (Table S5, ITC, mean of n = 2): -10.0 kcal/mol
- ΔG (Table S5, ITC, replicate 1): -10.0 kcal/mol
- ΔG (Table S5, ITC, replicate 2): -10.0 kcal/mol
- ΔH [5]: -10,71 kcal mol^-1
- -TΔS [6]: 0,68 kcal mol^-1
- ΔG [6]: -10,03 kcal mol^-1
- -TΔS (Table S6, ITC, run 1): 0,933 kcal mol^-1
- ΔG (Table S6, ITC, run 1): -10,03 kcal mol^-1
- ΔH (Table S6, ITC, run 1): -10,96 kcal mol^-1
- -TΔS (Table S6, ITC, run 2): 0,426 kcal mol^-1
- ΔG (Table S6, ITC, run 2): -10,02 kcal mol^-1
- ΔH (Table S6, ITC, run 2): -10,45 kcal mol^-1
